Reference: US20200247855A1, “THERAPY AND DIAGNOSTICS” (OXFORD UNIVERSITY INNOVATION LIMITED, priority 2017, published 2020)

System: human CCL5 together with CXCL8, CXCL1, CCL3 or CCL2
Assay: Biolayer interferometry polyvalent binding (association with CCL5, then CCL5 plus second chemokine)
Details: BLI, wavelength shift in association 2
Excerpt: FIG. 10. Polyvalent binding of CC and CXC chemokines to two-warhead evasins. […] This was followed by association with CCL5+CXCL8 (light grey trace), or with CCL5+CXCL1 (dark grey trace) or CCL5+CCL3 (black trace) (association 2), and then dissociated in buffer (dissociation).
FIG. 11. Polyvalent binding of CC and CXC chemokines to two-warhead evasins. […] This was followed by association with CCL5+CXCL8 (light grey trace), or with CCL5+CXCL1 (dark grey trace) or CCL5+CCL2 (black trace) (association 2), and then dissociated in buffer (dissociation).
The ability of 2-warhead evasins to engage in polyvalent binding of CC and CXC chemokines was further determined.

Chain of human CCL5 together with CXCL8, CXCL1, CCL3 or CCL2 (P13501 24-91): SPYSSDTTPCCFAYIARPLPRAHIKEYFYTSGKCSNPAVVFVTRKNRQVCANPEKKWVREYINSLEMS

P1243:P1156: two-warhead evasin: P1243_AMBAM linked via GGGGS linker to P1156_IXORI
Polyvalent (simultaneous) binding of CC and CXC chemokines: can associate simultaneously with CCL5 and either CXCL8 or CXCL1
